Broadly, the EC50 is the concentration at which the effect is half-maximal. A lower EC50 goes with greater potency. Broadly, the Emax is the maximal effect, on the per cent scale that the assay sets.

Consider twelve compounds from US20100190980A1, “PYRAZINAMIDE COMPOUND” (Taisho Pharmaceutical Co., Ltd, priority 2007, published 2010).

The target of assay [1] is T1, human liver GK (Homo sapiens, UniProt P35557).
T1 construct: GST (Glutathione S-transferase) (N); made in house; host or cells: Escherichia coli
T1 sequence (P35557 1-466 isoform P35557-2): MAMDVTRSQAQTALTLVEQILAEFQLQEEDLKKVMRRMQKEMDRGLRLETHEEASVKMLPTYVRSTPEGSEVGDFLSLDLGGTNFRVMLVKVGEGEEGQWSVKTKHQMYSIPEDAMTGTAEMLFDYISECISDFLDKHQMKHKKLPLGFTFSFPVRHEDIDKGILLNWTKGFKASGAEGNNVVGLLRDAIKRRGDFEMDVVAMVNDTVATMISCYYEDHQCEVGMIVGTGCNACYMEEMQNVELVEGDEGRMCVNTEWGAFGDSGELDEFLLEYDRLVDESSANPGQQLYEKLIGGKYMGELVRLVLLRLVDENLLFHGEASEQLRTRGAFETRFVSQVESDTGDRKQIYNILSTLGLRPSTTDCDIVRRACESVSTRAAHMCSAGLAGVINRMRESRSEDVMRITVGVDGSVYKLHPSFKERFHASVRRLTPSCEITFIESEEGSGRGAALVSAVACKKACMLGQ
Put plainly: GK Activation Test. The assay is classed as biochemical. As to conditions: 4 mM 14C-labeled glucose; for EC50: concentration activating GK to 50% of the maximum activation value. How it is done: A GK activation by a test compound was tested by partially modifying the method of Irwin A. Rose et al. (J. Biol. Chem. 1964 January; 239: 12-7).
The enzyme source used in this assay was human liver GK, which was allowed to express by Escherichia coli as a fusion protein having GST (Glutathione S-transferase) added to the amino terminal and purified by Glutathione Sepharose 4B (Amersham Biosciences).
The test was performed by using flat-bottom 96-well plates (Sumitomo Bakelite Co., Ltd). To each of the wells of plates, a dimethyl sulfoxide (DMSO) solution of a test compound and DMSO serving as a control were added so as to obtain a final DMSO concentration of 1%. Furthermore, 25 mM Hepes-KOH (pH=7.1), 25 mM KCl, 2 mM MgCl2, 2 mM ATP, 4 mM ^14C-labeled glucose (Amersham Pharmacia) and 1 mM DTT (dithiothreitol) (these concentrations were final concentrations) were added. Finally, human liver GK was added so as to obtain 0.24 μg/well. The reaction was initiated and carried out at room temperature.
Twenty minutes later, AG1-X4 resin (BioRad), which was suspended with 25 mM Hepes-KOH (pH=7.1), was added and allowed to bind a reaction product, a labeled glucose-6-phosphate. The whole quantity was transferred to a multi-screen plate (Millipore) and the resin was washed with water. Thereafter, labeled glucose-6-phosphate bound to the resin was eluted with a 0.5 M NaCl solution. The activity of the labeled glucose-6-phosphate eluted was measured and used as an index of GK activity.
Regarding the GK activity of a control group in a well in which DMSO alone was added as 100%, the GK activity activated by the test compound to a maximum was indicated as the maximum activation value (Emax value). Furthermore, the concentration of a test compound required for activating GK activity to 50% of the maximum activation value was indicated as an EC50 value.

In assay [2] the test system is SD rats. Put plainly: Blood Glucose Level-Lowering Effect in SD rats. The assay is classed as in vivo, rat. As to conditions: oral, 0.5% methyl cellulose group = 100%. How it is done: The effect of the compound of the present invention to decrease blood glucose level was investigated by use of SD rats.
SD rats were raised by free-feeding. From the caudal vein of 8-week old […], blood was taken and centrifugally separated to obtain the plasma. A blood glucose level of the plasma was measured by glucose CII test Wako. The rats were divided into groups of 6 rats so as to have the same average blood glucose level. In an agent administration group, a compound suspended in a 0.5% aqueous methyl cellulose solution was orally administered to the rats; whereas, in a control group, a 0.5% aqueous methylcellulose solution was orally administered. At 30 minutes, 60 minutes, 120 minutes, 240 minutes, 360 minutes and 480 minutes after the administration, blood was taken from the caudal vein of each rat. The plasma was centrifugally recovered and a blood glucose level was measured by use of glucose CII test Wako. Furthermore, a plasma insulin concentration was measured by an ultrasensitive rat insulin measuring kit (Morinaga Institute of Biological Science, Inc.). The blood glucose levels at individual time points were plotted to obtain a graph showing a change of blood glucose level.
Regarding the blood glucose level of the 0.5% methyl cellulose administration group as 100%, the blood glucose level of SD rats administrated with Compound No. 2 was indicated. In a 3 mg/kg administration group, the blood glucose level was 59% at 1 hour, 71% at 2 hours and 76% at 4 hours. Whereas, in a 10 mg/kg administration group, the blood glucose level was 53% at 1 hour, 68% at 2 hours, and 75% at 4 hours.

The compound `COCCn1ccc(NC(=O)c2nc(Sc3nnc(C)[nH]3)cnc2Sc2ccc(F)cc2)n1` [Compound No. 30, 3-[(4-fluorophenyl)sulfanyl]-N-[1-(2-methoxyethyl)-1H-pyrazol-3-yl]-6-[(5-methyl-4H-1,2,4-triazol-3-yl)sulfanyl]pyrazine-2-carboxamide] had an EC50 in assay [1] of 0.397 µM.

Regarding `O=C(O)c1ccc(NC(=O)c2nc(Sc3nnc[nH]3)cnc2Sc2ccc(F)cc2)nc1` [Compound No. 35, 6-[({3-[(4-fluorophenyl)sulfanyl]-6-(4H-1,2,4-triazol-3-ylsulfanyl)pyrazin-2-yl}carbonyl)amino]pyridine-3-carboxylic acid], a half-maximal effect in assay [1] (EC50) was put at 0.0724 µM.

For the compound `O=C(NC1=NCCS1)c1nc(Sc2nnc[nH]2)cnc1Sc1ccc(F)cc1` [Compound No. 25, N-(4,5-dihydro-1,3-thiazol-2-yl)-3-[(4-fluorophenyl)sulfanyl]-6-(4H-1,2,4-triazol-3-ylsulfanyl)pyrazine-2-carboxamide], the EC50 in assay [1] worked out at 0.365 µM.

Compound `Cn1ccc(NC(=O)c2nc(Sc3nnc[nH]3)cnc2SC2CCCCC2)n1` [Compound No. 5, 3-(cyclohexylsulfanyl)-N-(1-methyl-1H-pyrazol-3-yl)-6-(4H-1,2,4-triazol-3-ylsulfanyl)pyrazine-2-carboxamide] gave an EC50 in assay [1] of 0.171 µM.

Turning to `COc1ccc(Sc2ncc(Sc3nnc[nH]3)nc2C(=O)Nc2cnccn2)cc1` [Compound No. 46, 3-[(4-methoxyphenyl)sulfanyl]-N-pyrazin-2-yl-6-(4H-1,2,4-triazol-3-ylsulfanyl)pyrazine-2-carboxamide], a half-maximal response in assay [1] (EC50) required 0.0594 µM.

The compound `Cc1nnc(Sc2cnc(Sc3ccc(F)cc3)c(C(=O)Nc3ccn(C)n3)n2)[nH]1` [Compound No. 38, 3-[(4-fluorophenyl)sulfanyl]-N-(1-methyl-1H-pyrazol-3-yl)-6-[(5-methyl-4H-1,2,4-triazol-3-yl)sulfanyl]pyrazine-2-carboxamide] came in with a concentration for a half-maximal effect (EC50) in assay [1] of 0.117 µM.

Compound `CSc1ccc(Sc2ncc(Sc3nnc(N)[nH]3)nc2C(=O)Nc2cnccn2)cc1` [Compound No. 51, 6-[(5-amino-4H-1,2,4-triazol-3-yl)sulfanyl]-3-{[4-(methylsulfanyl)phenyl]sulfanyl}-N-pyrazin-2-ylpyrazine-2-carboxamide] yielded an EC50 in assay [1] of 0.131 µM.

Turning to `O=C(Nc1cnccn1)c1nc(Sc2nnc[nH]2)cnc1Sc1ccc(F)cc1` [Compound No. 29, 3-[(4-fluorophenyl)sulfanyl]-N-(pyrazin-2-yl)-6-(4H-1,2,4-triazol-3-ylsulfanyl)pyrazine-2-carboxamide], the EC50 in assay [1] was found to be 0.0895 µM.

`Cn1ccc(NC(=O)c2nc(Sc3nncs3)cnc2Sc2ccc(F)cc2)n1` [Compound No. 41, 3-[(4-fluorophenyl)sulfanyl]-N-(1-methyl-1H-pyrazol-3-yl)-6-(1,3,4-thiadiazol-2-ylsulfanyl)pyrazine-2-carboxamide] yielded an EC50 in assay [1] of 0.311 µM.

As for `Cc1nnc(Sc2cnc(Sc3ccc(S(C)(=O)=O)cc3)c(C(=O)Nc3ccn(C)n3)n2)[nH]1` [Compound No. 52, N-(1-methyl-1H-pyrazol-3-yl)-3-{[4-(methylsulfonyl)phenyl]sulfanyl}-6-[(5-methyl-4H-1,2,4-triazol-3-yl)sulfanyl]pyrazine-2-carboxamide], in assay [1] (GK activity of DMSO control = 100%, 2 mM ATP, read-out: Emax (maximum activation value)), the Emax is 883%. In assay [1], this compound gave an EC50 of 0.128 µM.

Turning to `Cn1ccc(NC(=O)c2nc(Sc3nnc[nH]3)cnc2Sc2ccc(F)cc2)n1` [Compound No. 2, 3-[(4-fluorophenyl)sulfanyl]-N-(1-methyl-1H-pyrazol-3-yl)-6-(4H-1,2,4-triazol-3-ylsulfanyl)pyrazine-2-carboxamide], the 50% effective concentration (EC50) in assay [1] stood at 0.104 µM. For the same compound, the blood glucose level in assay [2] (3 mg/kg, at 1 hour) is 59%; in assay [2] (3 mg/kg, at 2 hours), 71%; in assay [2] (3 mg/kg, at 4 hours) it was 76%; in assay [2] (10 mg/kg, at 1 hour) it was 53%; in assay [2] (10 mg/kg, at 2 hours), 68%; in assay [2] (10 mg/kg, at 4 hours), 75%.

With `Cn1ccc(NC(=O)c2nc(Sc3nnc[nH]3)cnc2Sc2ccncc2)n1` [Compound No. 24, N-(1-methyl-1H-pyrazol-3-yl)-3-(pyridin-4-ylsulfanyl)-6-(4H-1,2,4-triazol-3-ylsulfanyl)pyrazine-2-carboxamide], a half-maximal effect in assay [1] (EC50) was put at 0.11 µM.
